# System: Tetranychus urticae
# Experiment: Test for confirming effect on Tetranychus urticae (kidney bean leaves in petri dish, sprinkling; survival numbers of next generation)
# Format: in vivo
# Procedure: Test for Confirming Effect on Tetranychus urticae
# Ten Tetranychus urticae female imagoes were inoculated on kidney bean leaves placed in each petri dish on the day before chemical solution treatment.
# A flowable agent containing the compound A was diluted with water containing RABIDEN 3S diluted 5000 times to prepare chemical solutions A containing the compound A at twice concentrations described in Table 3, respectively.
# A preparation containing the compound B or a flowable agent containing the compound B was diluted with water containing RABIDEN 3S diluted 5000 times to prepare chemical solutions B containing the compound B at twice concentrations described in Table 3, respectively.
# {Preparations Used in Test Examples and Containing the Compound B}
# • Test numbers a and b: hexythiazox: Nissorun wettable powder (produced by Nippon Soda Co., Ltd.) • Test numbers c and d: abamectin: Agri-Mek (produced by Syngenta Japan K.K.) • Test numbers e and f: fenpyroximate: DANITRON flowable (produced by NIHON NOHYAKU CO., LTD.) • Test numbers g and h: acetamiprid: MOSPILAN water soluble powder (produced by Nippon Soda Co., Ltd.) • Test number i: propargite: Omite wettable powder (produced by NIHON NOHYAKU CO., LTD.)
# A mixed solution obtained by mixing the chemical solution A and the chemical solution B in an equivalent amount was sprinkled on a petri dish containing kidney bean leaves on which Tetranychus urticae was inoculated at 2 mg per 1 cm^2 with a rotatory sprinkling tower (AB mixture application plot).
# The chemical solution A and the chemical solution B were twice diluted with the water containing RABIDEN 3S diluted 5000 times to obtain a chemical solution A′ and a chemical solution B′, respectively.
# The chemical solution A′ was sprinkled on another petri dish containing kidney bean leaves on which Tetranychus urticae was inoculated at 2 mg per 1 cm^2 with a rotatory sprinkling tower (A single application plot). The Chemical solution B′ was sprinkled on another petri dish containing kidney bean leaves on which Tetranychus urticae was inoculated at 2 mg per 1 cm^2 with a rotatory sprinkling tower (B single application plot).
# Then, the petri dishes on which the chemical solutions were sprinkled were placed in a thermostatic chamber at a temperature of 25° C. and a humidity of 60%. All the imagoes were removed after 3 days elapsed from the sprinkling. Then, the petri dishes from which the imagoes were removed were placed in a thermostatic chamber at a temperature of 25° C. and a humidity of 60%. When 10 days elapsed from the sprinkling, the survival numbers of the next generation were investigated, and the effectivenesses were calculated. Effectiveness (%)=(Cn−Tn)/Cn×100 • Cn: Survival numbers of next generation in non-treatment plot after 10 days • Tn: Survival numbers of next generation in treatment plot after 10 days
# To show the degree of a synergistic effect, the “effectiveness expectation” was calculated based on the Colby method. When the effectiveness is higher than the “effectiveness expectation”, it is determined that there is a synergistic effect. Expectation of effectiveness (%)(E)=X+Y−XY/100 • X: measurement of effectiveness in B single application plot (%) • Y: measurement of effectiveness in A single application plot (%)
compound,measurement,setting,value
C#CCOS(=O)OC1CCCCC1Oc1ccc(C(C)(C)C)cc1 (centres unmarked) [propargite],Effectiveness Found,"propargite 5 ppm, B single application plot, 10 days after sprinkling",24%
Cc1nn(C)c(Oc2ccccc2)c1C=NOCc1ccc(C(=O)OC(C)(C)C)cc1 [fenpyroximate],Effectiveness Found,"fenpyroximate 2.5 ppm, B single application plot, 10 days after sprinkling",67%
abamectin,Effectiveness Found,"abamectin 0.07 ppm, B single application plot, 10 days after sprinkling",42%
CCCOc1cc(C(F)(F)F)ccc1O[C@H]1C[C@H]2CCC[C@@H](C1)N2Oc1ccc(C(F)(F)F)cn1 [acynonapyr],Effectiveness Found,"acynonapyr 0.4 ppm, B single application plot, 10 days after sprinkling",58%
"CCN(Oc1cc(Br)cc(C(F)(F)F)c1)C(=O)NC(C)(C)C(=O)NCC(F)(F)F [Compound (II), 2-{3-[3-bromo-5-(trifluoromethyl)phenoxy]-3-ethylureido}-2-methyl-N-(2,2,2-trifluoroethyl)propanamide]",Effectiveness Found,"Compound (II) 2.3 ppm, A single application plot, next generation 10 days after sprinkling",52%
same,Effectiveness Found,"Compound (II) 4.7 ppm, A single application plot, next generation 10 days after sprinkling",74%
C/C(=N\C#N)N(C)Cc1ccc(Cl)nc1 [acetamiprid],Effectiveness Found,"acetamiprid 100 ppm, B single application plot, 10 days after sprinkling",5%
C[C@@H]1[C@@H](c2ccc(Cl)cc2)SC(=O)N1C(=O)NC1CCCCC1 [hexythiazox],Effectiveness Found,"hexythiazox 1 ppm, B single application plot, 10 days after sprinkling",58%

# Source: patent publication US12465049B2, “Pest control method, and pest control agent composition and pest control agent set” (Nippon Soda Co., Ltd., priority 2019, dated 2025)
